Laboratory results reported in the kinase profiling compilation of Christmann-Franck et al. (2016).
One block for each molecule: values may come before it.

Assays:
Test in all cases: KINOMEscan competition binding
Details in all cases: compound 10.0 µM; call rule not given here
BRAF (human) = BRAF (human) (UniProt P15056)
BRSK2 (human) = BRSK2 (human) (UniProt Q8IWQ3)
BTK (human) = BTK (human) (UniProt Q06187)
CAMK2A (human) = CAMK2A (human) (UniProt Q9UQM7)
CDK16 (human) = CDK16 (human) (UniProt Q00536)
CDK5 (human) = CDK5 (human) (UniProt Q00535)
CSNK1G1 (human) = CSNK1G1 (human) (UniProt Q9HCP0)
FLT1 (human) = FLT1 (human) (UniProt P17948)
MARK2 (human) = MARK2 (human) (UniProt Q7KZI7)
MST4 (human) = MST4 (human) (UniProt Q9P289)
NTRK3 (human) = NTRK3 (human) (UniProt Q16288)
RAF1 (human) = RAF1 (human) (UniProt P04049)
STK24 (human) = STK24 (human) (UniProt Q9Y6E0)
TLK1 (human) = TLK1 (human) (UniProt Q9UKI8)
ABL2 (human) = ABL2 (human) (UniProt P42684)
BLK (human) = BLK (human) (UniProt P51451)
CAMK1D (human) = CAMK1D (human) (UniProt Q8IU85)
CSNK1E (human) = CSNK1E (human) (UniProt P49674)
EPHA8 (human) = EPHA8 (human) (UniProt P29322)
FES (human) = FES (human) (UniProt P07332)
SIK2 (human) = SIK2 (human) (UniProt Q9H0K1)
SRC (human) = SRC (human) (UniProt P12931)
STK3 (human) = STK3 (human) (UniProt Q13188)
YES1 (human) = YES1 (human) (UniProt P07947)
AAK1 (human) = AAK1 (human) (UniProt Q2M2I8)
STK11 (human) = STK11 (human) (UniProt Q15831)
AURKA (human) = AURKA (human) (UniProt O14965)
NTRK2 (human) = NTRK2 (human) (UniProt Q16620)
STK16 (human) = STK16 (human) (UniProt O75716)
[1] = molecular target: TYK2 JH1 catalytic (human) (UniProt P29597)
AURKC (human) = AURKC (human) (UniProt Q9UQB9)
AXL (human) = AXL (human) (UniProt P30530)
BMP2K (human) = BMP2K (human) (UniProt Q9NSY1)
FLT3 (human) = FLT3 (human) (UniProt P36888)
MAP4K3 (human) = MAP4K3 (human) (UniProt Q8IVH8)
STK4 (human) = STK4 (human) (UniProt Q13043)

FES (human), sequence (P07332 whole entry, looked up): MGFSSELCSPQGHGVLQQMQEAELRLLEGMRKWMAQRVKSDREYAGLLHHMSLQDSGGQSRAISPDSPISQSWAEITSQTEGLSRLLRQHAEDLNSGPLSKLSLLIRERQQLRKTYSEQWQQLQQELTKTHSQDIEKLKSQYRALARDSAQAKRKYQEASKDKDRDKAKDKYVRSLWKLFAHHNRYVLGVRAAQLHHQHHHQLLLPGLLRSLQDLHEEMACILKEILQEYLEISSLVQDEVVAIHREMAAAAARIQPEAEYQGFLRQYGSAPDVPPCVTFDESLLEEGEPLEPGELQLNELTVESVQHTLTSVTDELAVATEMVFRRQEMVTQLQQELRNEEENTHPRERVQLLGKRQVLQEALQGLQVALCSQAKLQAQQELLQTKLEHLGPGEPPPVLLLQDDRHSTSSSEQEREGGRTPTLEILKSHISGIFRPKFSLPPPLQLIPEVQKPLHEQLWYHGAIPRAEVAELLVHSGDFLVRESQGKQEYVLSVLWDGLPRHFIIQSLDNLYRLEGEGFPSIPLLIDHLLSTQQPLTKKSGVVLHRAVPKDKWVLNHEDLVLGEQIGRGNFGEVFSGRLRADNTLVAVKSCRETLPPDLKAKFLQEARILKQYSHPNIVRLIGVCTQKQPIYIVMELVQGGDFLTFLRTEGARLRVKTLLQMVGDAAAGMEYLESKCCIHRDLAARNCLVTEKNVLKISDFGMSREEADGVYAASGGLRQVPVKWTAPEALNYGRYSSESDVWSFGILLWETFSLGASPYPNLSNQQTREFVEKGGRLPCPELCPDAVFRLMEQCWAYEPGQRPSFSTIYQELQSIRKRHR
NTRK2 (human), sequence (Q16620 whole entry, looked up): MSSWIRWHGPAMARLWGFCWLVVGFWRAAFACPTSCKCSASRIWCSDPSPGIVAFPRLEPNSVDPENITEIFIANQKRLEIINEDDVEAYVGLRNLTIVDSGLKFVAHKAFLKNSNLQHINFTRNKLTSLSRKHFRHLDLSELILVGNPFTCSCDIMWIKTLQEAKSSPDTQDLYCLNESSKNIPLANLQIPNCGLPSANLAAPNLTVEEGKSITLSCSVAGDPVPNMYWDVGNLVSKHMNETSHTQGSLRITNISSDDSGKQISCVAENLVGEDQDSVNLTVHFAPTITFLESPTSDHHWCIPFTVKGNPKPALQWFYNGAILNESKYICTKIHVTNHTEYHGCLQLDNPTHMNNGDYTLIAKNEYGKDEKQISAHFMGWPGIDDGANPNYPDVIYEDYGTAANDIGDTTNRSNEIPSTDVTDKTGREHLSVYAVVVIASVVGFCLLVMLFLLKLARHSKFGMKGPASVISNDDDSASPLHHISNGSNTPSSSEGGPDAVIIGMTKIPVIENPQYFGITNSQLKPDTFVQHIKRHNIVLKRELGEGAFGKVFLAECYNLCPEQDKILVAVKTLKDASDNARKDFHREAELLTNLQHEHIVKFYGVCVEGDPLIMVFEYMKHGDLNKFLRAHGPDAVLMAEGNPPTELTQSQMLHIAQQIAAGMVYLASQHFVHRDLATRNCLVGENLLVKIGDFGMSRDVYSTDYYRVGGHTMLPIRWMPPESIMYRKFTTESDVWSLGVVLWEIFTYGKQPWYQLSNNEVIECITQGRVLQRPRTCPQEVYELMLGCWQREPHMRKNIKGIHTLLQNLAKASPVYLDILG
CSNK1G1 (human), sequence (Q9HCP0 whole entry, looked up): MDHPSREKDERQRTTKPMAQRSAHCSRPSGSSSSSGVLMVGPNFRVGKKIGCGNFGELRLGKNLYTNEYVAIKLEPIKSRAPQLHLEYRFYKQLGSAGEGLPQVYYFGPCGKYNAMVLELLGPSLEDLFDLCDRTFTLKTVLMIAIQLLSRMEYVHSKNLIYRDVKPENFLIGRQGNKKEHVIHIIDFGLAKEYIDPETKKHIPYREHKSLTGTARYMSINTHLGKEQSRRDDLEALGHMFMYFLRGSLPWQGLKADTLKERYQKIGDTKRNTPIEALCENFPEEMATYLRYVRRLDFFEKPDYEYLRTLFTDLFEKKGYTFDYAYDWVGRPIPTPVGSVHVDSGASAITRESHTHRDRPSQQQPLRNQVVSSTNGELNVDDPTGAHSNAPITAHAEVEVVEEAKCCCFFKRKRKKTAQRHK
STK11 (human), sequence (Q15831 whole entry, looked up): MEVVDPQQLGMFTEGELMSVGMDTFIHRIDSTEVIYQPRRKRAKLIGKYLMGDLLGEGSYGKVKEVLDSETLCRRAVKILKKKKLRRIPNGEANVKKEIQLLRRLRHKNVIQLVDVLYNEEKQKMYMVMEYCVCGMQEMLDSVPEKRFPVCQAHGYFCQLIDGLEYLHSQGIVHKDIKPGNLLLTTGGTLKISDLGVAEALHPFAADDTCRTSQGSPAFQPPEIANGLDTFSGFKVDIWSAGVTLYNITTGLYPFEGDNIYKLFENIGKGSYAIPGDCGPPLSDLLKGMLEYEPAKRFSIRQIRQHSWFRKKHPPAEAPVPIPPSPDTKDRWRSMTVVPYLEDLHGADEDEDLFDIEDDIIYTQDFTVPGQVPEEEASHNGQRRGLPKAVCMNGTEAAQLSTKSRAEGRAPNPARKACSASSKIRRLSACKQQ
CDK5 (human), sequence (Q00535 whole entry, looked up): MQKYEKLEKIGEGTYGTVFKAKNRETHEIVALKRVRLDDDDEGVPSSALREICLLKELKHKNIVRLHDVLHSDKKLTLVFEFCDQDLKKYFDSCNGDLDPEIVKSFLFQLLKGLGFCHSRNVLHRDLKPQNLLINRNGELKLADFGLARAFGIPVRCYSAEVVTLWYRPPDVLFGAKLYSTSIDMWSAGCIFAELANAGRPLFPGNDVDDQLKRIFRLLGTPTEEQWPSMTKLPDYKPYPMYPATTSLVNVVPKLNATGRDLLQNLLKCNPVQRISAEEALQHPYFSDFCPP
STK24 (human), sequence (Q9Y6E0 whole entry, looked up): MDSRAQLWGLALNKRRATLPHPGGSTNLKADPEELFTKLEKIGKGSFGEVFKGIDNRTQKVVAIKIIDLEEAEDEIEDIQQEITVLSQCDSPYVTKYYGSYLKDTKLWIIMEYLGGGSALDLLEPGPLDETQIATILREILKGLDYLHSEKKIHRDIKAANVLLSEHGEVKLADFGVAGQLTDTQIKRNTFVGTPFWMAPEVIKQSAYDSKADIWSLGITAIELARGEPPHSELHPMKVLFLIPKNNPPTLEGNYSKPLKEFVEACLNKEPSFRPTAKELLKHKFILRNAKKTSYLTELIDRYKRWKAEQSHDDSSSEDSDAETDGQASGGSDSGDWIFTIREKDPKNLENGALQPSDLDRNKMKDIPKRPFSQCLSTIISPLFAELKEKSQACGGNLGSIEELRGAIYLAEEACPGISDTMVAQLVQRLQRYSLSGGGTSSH
AAK1 (human), sequence (Q2M2I8 whole entry, looked up): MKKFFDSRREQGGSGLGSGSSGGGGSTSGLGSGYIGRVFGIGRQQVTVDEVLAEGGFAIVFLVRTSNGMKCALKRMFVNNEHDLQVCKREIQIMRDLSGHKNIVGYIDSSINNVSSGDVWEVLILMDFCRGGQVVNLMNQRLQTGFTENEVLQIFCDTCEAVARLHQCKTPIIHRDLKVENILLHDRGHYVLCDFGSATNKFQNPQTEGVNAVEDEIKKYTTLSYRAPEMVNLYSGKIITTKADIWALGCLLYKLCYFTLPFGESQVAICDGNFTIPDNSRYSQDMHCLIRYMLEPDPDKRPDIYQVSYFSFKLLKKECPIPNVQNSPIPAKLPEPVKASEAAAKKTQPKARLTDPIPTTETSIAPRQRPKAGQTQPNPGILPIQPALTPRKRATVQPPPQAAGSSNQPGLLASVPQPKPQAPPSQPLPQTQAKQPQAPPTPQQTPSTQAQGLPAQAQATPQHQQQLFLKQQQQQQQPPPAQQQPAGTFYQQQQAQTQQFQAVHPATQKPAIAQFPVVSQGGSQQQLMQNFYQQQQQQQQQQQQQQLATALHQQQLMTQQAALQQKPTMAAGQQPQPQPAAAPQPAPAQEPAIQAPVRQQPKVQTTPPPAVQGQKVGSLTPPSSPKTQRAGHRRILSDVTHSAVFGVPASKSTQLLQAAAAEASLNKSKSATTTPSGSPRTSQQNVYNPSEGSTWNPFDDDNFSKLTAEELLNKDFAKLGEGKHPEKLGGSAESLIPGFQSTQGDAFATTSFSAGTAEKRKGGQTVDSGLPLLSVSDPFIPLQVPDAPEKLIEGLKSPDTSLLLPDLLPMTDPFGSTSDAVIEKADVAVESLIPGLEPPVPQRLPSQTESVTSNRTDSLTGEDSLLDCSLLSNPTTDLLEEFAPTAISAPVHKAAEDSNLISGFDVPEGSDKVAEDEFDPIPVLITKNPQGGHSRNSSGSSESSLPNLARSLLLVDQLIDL
SRC (human), sequence (P12931 whole entry, looked up): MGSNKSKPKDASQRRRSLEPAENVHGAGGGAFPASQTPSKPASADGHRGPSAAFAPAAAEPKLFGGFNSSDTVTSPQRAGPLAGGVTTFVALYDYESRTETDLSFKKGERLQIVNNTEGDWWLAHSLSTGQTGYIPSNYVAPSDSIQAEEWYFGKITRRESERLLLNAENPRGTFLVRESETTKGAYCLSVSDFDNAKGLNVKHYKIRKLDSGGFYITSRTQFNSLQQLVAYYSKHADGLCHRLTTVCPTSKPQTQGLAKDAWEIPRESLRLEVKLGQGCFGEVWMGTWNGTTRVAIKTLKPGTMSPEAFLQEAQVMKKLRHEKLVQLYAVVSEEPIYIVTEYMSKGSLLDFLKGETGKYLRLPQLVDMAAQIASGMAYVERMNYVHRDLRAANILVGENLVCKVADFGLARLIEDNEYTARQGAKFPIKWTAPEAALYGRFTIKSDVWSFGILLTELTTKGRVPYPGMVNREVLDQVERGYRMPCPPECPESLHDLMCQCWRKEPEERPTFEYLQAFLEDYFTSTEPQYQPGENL

Structure (SMILES): CN(C)c1ccc(-c2cc3ncccc3c(NCCCCN)n2)cc1
kinase still bound, per cent of control (BRAF (human)): no effect (inactive) | kinase still bound, per cent of control (BRSK2 (human)): no effect (inactive) | kinase still bound, per cent of control (BTK (human)): no effect (inactive) | kinase still bound, per cent of control (CAMK2A (human)): no effect (inactive) | kinase still bound, per cent of control (CDK16 (human)): no effect (inactive) | kinase still bound, per cent of control (CDK5 (human)): no effect (inactive) | kinase still bound, per cent of control (CSNK1G1 (human)): no effect (inactive) | kinase still bound, per cent of control (FLT1 (human)): no effect (inactive) | kinase still bound, per cent of control (MARK2 (human)): no effect (inactive) | kinase still bound, per cent of control (MST4 (human)): no effect (inactive) | kinase still bound, per cent of control (NTRK3 (human)): no effect (inactive) | kinase still bound, per cent of control (RAF1 (human)): no effect (inactive) | kinase still bound, per cent of control (STK24 (human)): no effect (inactive) | kinase still bound, per cent of control (TLK1 (human)): no effect (inactive)

Structure (SMILES): O=C1Nc2ccccc2/C1=C/c1ccc[nH]1
kinase still bound, per cent of control (ABL2 (human)): no effect (inactive) | kinase still bound, per cent of control (BLK (human)): no effect (inactive) | kinase still bound, per cent of control (BRAF (human)): no effect (inactive) | kinase still bound, per cent of control (CAMK1D (human)): no effect (inactive) | kinase still bound, per cent of control (CAMK2A (human)): no effect (inactive) | kinase still bound, per cent of control (CDK16 (human)): 0% | kinase still bound, per cent of control (CSNK1E (human)): 0% | kinase still bound, per cent of control (CSNK1G1 (human)): no effect (inactive) | kinase still bound, per cent of control (EPHA8 (human)): no effect (inactive) | kinase still bound, per cent of control (FES (human)): no effect (inactive) | kinase still bound, per cent of control (RAF1 (human)): no effect (inactive) | kinase still bound, per cent of control (SIK2 (human)): no effect (inactive) | kinase still bound, per cent of control (SRC (human)): no effect (inactive) | kinase still bound, per cent of control (STK3 (human)): 0% | kinase still bound, per cent of control (YES1 (human)): no effect (inactive)

Structure (SMILES): NC(=O)Nc1sc(-c2ccc(F)cc2)cc1C(N)=O
kinase still bound, per cent of control (AAK1 (human)): 0% | kinase still bound, per cent of control (CDK5 (human)): no effect (inactive) | kinase still bound, per cent of control (CSNK1G1 (human)): no effect (inactive) | kinase still bound, per cent of control (EPHA8 (human)): no effect (inactive) | kinase still bound, per cent of control (FES (human)): no effect (inactive) | kinase still bound, per cent of control (RAF1 (human)): no effect (inactive) | kinase still bound, per cent of control (STK11 (human)): 0%

Structure (SMILES): N#Cc1ccc(-c2cnc3[nH]cc(NC(=O)c4cccnc4)c3c2)cc1
kinase still bound, per cent of control (ABL2 (human)): no effect (inactive) | kinase still bound, per cent of control (AURKA (human)): no effect (inactive) | kinase still bound, per cent of control (BRSK2 (human)): no effect (inactive) | kinase still bound, per cent of control (BTK (human)): no effect (inactive) | kinase still bound, per cent of control (EPHA8 (human)): no effect (inactive) | kinase still bound, per cent of control (FES (human)): no effect (inactive) | kinase still bound, per cent of control (FLT1 (human)): no effect (inactive) | kinase still bound, per cent of control (MST4 (human)): no effect (inactive) | kinase still bound, per cent of control (NTRK2 (human)): no effect (inactive) | kinase still bound, per cent of control (NTRK3 (human)): no effect (inactive) | kinase still bound, per cent of control (RAF1 (human)): no effect (inactive) | kinase still bound, per cent of control (SIK2 (human)): no effect (inactive) | kinase still bound, per cent of control (SRC (human)): no effect (inactive) | kinase still bound, per cent of control (STK16 (human)): 0% | kinase still bound, per cent of control (STK24 (human)): no effect (inactive) | kinase still bound, per cent of control (TLK1 (human)): no effect (inactive) | kinase still bound, per cent of control [1]: no effect (inactive) | kinase still bound, per cent of control (YES1 (human)): no effect (inactive)

Results, then the molecule that gave them:

kinase still bound, per cent of control (ABL2 (human)): 0% | kinase still bound, per cent of control (BRAF (human)): no effect (inactive) | kinase still bound, per cent of control (BTK (human)): no effect (inactive) | kinase still bound, per cent of control (CAMK2A (human)): no effect (inactive) | kinase still bound, per cent of control (CDK5 (human)): no effect (inactive) | kinase still bound, per cent of control (CSNK1G1 (human)): no effect (inactive) | kinase still bound, per cent of control (MST4 (human)): no effect (inactive) | kinase still bound, per cent of control (RAF1 (human)): no effect (inactive) | kinase still bound, per cent of control (STK11 (human)): 0%
Structure (SMILES): Cc1cc(Nc2cc(N3CCN(C)CC3)nc(Sc3ccc(NC(=O)C4CC4)cc3)n2)[nH]n1

kinase still bound, per cent of control (AAK1 (human)): no effect (inactive) | kinase still bound, per cent of control (AURKA (human)): no effect (inactive) | kinase still bound, per cent of control (AURKC (human)): no effect (inactive) | kinase still bound, per cent of control (AXL (human)): no effect (inactive) | kinase still bound, per cent of control (BMP2K (human)): no effect (inactive) | kinase still bound, per cent of control (BRAF (human)): no effect (inactive) | kinase still bound, per cent of control (BRSK2 (human)): no effect (inactive) | kinase still bound, per cent of control (BTK (human)): no effect (inactive) | kinase still bound, per cent of control (CAMK1D (human)): no effect (inactive) | kinase still bound, per cent of control (CAMK2A (human)): no effect (inactive) | kinase still bound, per cent of control (CDK16 (human)): no effect (inactive) | kinase still bound, per cent of control (CDK5 (human)): no effect (inactive) | kinase still bound, per cent of control (CSNK1E (human)): no effect (inactive) | kinase still bound, per cent of control (CSNK1G1 (human)): no effect (inactive) | kinase still bound, per cent of control (EPHA8 (human)): 0% | kinase still bound, per cent of control (FES (human)): no effect (inactive) | kinase still bound, per cent of control (FLT3 (human)): no effect (inactive) | kinase still bound, per cent of control (MAP4K3 (human)): no effect (inactive) | kinase still bound, per cent of control (MARK2 (human)): no effect (inactive) | kinase still bound, per cent of control (MST4 (human)): no effect (inactive) | kinase still bound, per cent of control (NTRK2 (human)): no effect (inactive) | kinase still bound, per cent of control (NTRK3 (human)): no effect (inactive) | kinase still bound, per cent of control (SIK2 (human)): no effect (inactive) | kinase still bound, per cent of control (STK11 (human)): no effect (inactive) | kinase still bound, per cent of control (STK16 (human)): no effect (inactive) | kinase still bound, per cent of control (STK24 (human)): no effect (inactive) | kinase still bound, per cent of control (STK3 (human)): no effect (inactive) | kinase still bound, per cent of control (STK4 (human)): no effect (inactive) | kinase still bound, per cent of control (TLK1 (human)): no effect (inactive) | kinase still bound, per cent of control [1]: no effect (inactive)
Structure (SMILES): Cc1ccc(C(=O)Nc2cccc(C(C)(C)C)c2)cc1-c1ccc(C(=O)NCC2CC2)cc1

kinase still bound, per cent of control (AAK1 (human)): no effect (inactive) | kinase still bound, per cent of control (ABL2 (human)): 0% | kinase still bound, per cent of control (AURKC (human)): no effect (inactive) | kinase still bound, per cent of control (AXL (human)): no effect (inactive) | kinase still bound, per cent of control (BMP2K (human)): no effect (inactive) | kinase still bound, per cent of control (BRAF (human)): no effect (inactive) | kinase still bound, per cent of control (BRSK2 (human)): no effect (inactive) | kinase still bound, per cent of control (CAMK1D (human)): no effect (inactive) | kinase still bound, per cent of control (CAMK2A (human)): no effect (inactive) | kinase still bound, per cent of control (CDK16 (human)): no effect (inactive) | kinase still bound, per cent of control (CDK5 (human)): no effect (inactive) | kinase still bound, per cent of control (CSNK1E (human)): 0% | kinase still bound, per cent of control (EPHA8 (human)): 0% | kinase still bound, per cent of control (MARK2 (human)): no effect (inactive) | kinase still bound, per cent of control (MST4 (human)): no effect (inactive) | kinase still bound, per cent of control (NTRK2 (human)): no effect (inactive) | kinase still bound, per cent of control (NTRK3 (human)): no effect (inactive) | kinase still bound, per cent of control (SRC (human)): 0% | kinase still bound, per cent of control (STK24 (human)): no effect (inactive) | kinase still bound, per cent of control (STK4 (human)): no effect (inactive) | kinase still bound, per cent of control (TLK1 (human)): no effect (inactive) | kinase still bound, per cent of control (YES1 (human)): 0%
Structure (SMILES): Cc1ccc(O)cc1Nc1ccnc(Nc2cccc(C(N)=O)c2)n1
